Experimental findings from ChEMBL document CHEMBL6121046, “Discovery of Novel Hydrazide-Based HDAC3 Inhibitors as Epigenetic Immunomodulators for Cancer Immunotherapy” (J Med Chem, 2025) are described below.

The target of one data set is Histone deacetylase 1 (Homo sapiens, UniProt Q13547). Kind of data set: Inhibition of human recombinant HDAC1 pre-incubated with compounds for 10 mins measured followed by 60 mins of substrate addition.
The subject of data set [1] is MC-38. Kind of data set: Induction of apoptosis in mouse MC38 cells assessed as late apoptotic cells at 8 uM measured after 48 hrs by FITC/PI staining based flow cytometry (reference value: 5.07%). The class given is functional. A general note: Flow cytometry measures light scatter and fluorescence of single cells or particles in a stream.
Data set [2] relates to MC-38. Kind of data set: Induction of apoptosis in mouse MC38 cells assessed as late apoptotic cells at 4 uM measured after 48 hrs by FITC/PI staining based flow cytometry (reference value: 5.07%). The class given is functional.
Data set [3] deals with MC-38. Kind of data set: Induction of apoptosis in mouse MC38 cells assessed as early apoptotic cells at 8 uM measured after 48 hrs by FITC/PI staining based flow cytometry (Rvb =12.27%). The class given is functional.
The test system of data set [4] is MC-38. Kind of data set: Induction of apoptosis in mouse MC38 cells assessed as early apoptotic cells at 2 uM measured after 48 hrs by FITC/PI staining based flow cytometry (Rvb =12.27%). The class given is functional.
The next data set addresses Histone deacetylase 3 (Homo sapiens, UniProt O15379). Kind of data set: Inhibition of human recombinant HDAC3 pre-incubated with compounds for 10 mins measured followed by 60 mins of substrate addition.
The test system of another data set is HepG2. Kind of data set: Antiproliferative activity against human HepG2 cells measured after 48 hrs incubation by MTT assay relative to control. As to conditions: HepG2, 48 h. Format: functional, cell-based.
Data set [5] relates to MC-38. Kind of data set: Induction of PD-L1 expression in mouse MC38 cells measured after 24 hrs incubation by Western blot analysis. The class given is functional, cell-based. As to conditions: dose 1-4 µM.
In another data set the test system is B16-F10. Kind of data set: Antiproliferative activity against mouse B16-F10 cells at 1 uM measured after 48 hrs incubation by MTT assay relative to control. On the technique in general: Tetrazolium dyes change colour on reduction, which living cells bring about.
The subject of data set [6] is MC-38. Kind of data set: Induction of apoptosis in mouse MC38 cells assessed as early apoptotic cells at 4 uM measured after 48 hrs by FITC/PI staining based flow cytometry (Rvb =12.27%). Format: functional.
The test system of the next data set is HeLa. Kind of data set: Antiproliferative activity against human HeLa cells measured after 48 hrs incubation by MTT assay relative to control. Format: functional, cell-based.
Data set [7] has as its system MC-38. Kind of data set: Induction of apoptosis in mouse MC38 cells assessed as late apoptotic cells at 1 uM measured after 48 hrs by FITC/PI staining based flow cytometry (reference value: 5.07%). The class given is functional.
For data set [8], the system named is MC-38. Kind of data set: Antiproliferative activity against mouse MC38 cells measured after 48 hrs incubation by MTT assay relative to control. Format: functional, cell-based. The note with it: MC-38, 48 h.
For data set [9], the target named is T1, Protein deacetylase HDAC6 (Homo sapiens, UniProt Q9UBN7).
T1 sequence (Q9UBN7 whole entry): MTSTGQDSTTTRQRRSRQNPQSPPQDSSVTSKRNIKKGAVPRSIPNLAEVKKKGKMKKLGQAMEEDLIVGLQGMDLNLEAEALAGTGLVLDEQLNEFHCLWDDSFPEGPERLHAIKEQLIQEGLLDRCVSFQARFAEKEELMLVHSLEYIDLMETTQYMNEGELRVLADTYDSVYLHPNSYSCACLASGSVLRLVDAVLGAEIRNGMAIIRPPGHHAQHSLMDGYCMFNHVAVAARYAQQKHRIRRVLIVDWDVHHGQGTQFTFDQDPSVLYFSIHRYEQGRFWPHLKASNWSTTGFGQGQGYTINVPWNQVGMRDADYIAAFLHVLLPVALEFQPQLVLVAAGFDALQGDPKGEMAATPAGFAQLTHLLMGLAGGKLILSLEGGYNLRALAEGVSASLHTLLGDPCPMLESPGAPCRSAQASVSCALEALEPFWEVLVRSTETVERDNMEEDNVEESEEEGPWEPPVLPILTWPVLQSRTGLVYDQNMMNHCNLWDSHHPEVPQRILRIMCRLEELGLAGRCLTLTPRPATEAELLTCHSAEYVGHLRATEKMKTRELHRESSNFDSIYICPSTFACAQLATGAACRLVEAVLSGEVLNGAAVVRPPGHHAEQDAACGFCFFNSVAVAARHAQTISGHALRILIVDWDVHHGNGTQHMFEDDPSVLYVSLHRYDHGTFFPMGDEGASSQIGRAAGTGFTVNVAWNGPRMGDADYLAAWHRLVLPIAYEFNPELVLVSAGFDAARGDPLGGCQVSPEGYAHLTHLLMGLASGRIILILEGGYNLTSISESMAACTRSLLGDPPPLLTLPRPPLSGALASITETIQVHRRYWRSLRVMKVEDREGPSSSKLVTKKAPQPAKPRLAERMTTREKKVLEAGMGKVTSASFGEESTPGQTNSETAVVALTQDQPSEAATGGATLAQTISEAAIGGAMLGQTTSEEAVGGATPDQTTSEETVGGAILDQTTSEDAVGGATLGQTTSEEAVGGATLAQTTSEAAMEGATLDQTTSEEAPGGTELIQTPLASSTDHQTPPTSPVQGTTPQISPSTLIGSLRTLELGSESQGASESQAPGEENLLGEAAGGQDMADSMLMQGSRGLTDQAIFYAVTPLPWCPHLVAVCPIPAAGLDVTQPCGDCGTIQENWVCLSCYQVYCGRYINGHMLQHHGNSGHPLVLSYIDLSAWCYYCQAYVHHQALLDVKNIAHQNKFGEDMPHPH
Kind of data set: Inhibition of human recombinant HDAC6 pre-incubated with compounds for 10 mins measured followed by 60 mins of substrate addition.

The subject of data set [10] is MC-38. Kind of data set: Induction of apoptosis in mouse MC38 cells assessed as viable cells at 8 uM measured after 48 hrs by FITC/PI staining based flow cytometry (reference value: 82.07%). The class given is functional. As to conditions: read-out: Activity.
Data set [11] in a line: Tmax in Sprague-Dawley rat at 20 mg/kg, iv measured upto 12 hrs by LC-MS/MS analysis. Format: ADME, organism-based. As to conditions: in vivo.
Data set [12] in a line: MRT (0 to t) in Sprague-Dawley rat at 20 mg/kg, iv measured upto 12 hrs by LC-MS/MS analysis. The class given is ADME, organism-based. The note with it: in vivo.
The nature of data set [13]: Volume of distribution at steady state in Sprague-Dawley rat at 20 mg/kg, po measured upto 12 hrs by LC-MS/MS analysis. The class given is ADME, organism-based. As to conditions: in vivo.
Data set [14] is described as follows: Half life in Sprague-Dawley rat at 20 mg/kg, iv measured upto 12 hrs by LC-MS/MS analysis. The class given is ADME, organism-based. The note with it: in vivo.
The subject of data set [15] is MC-38. Kind of data set: Induction of mitochondrial membrane damage in mouse MC38 cells assessed as decrease in JC-1 aggregation by measuring red fluorescence at 1 uM measured after 48 hrs (reference value: 96.70%). Format: functional. The arrangement: scale not given: the % may be the effect or the level left.
A further data set concerns Mus musculus. Kind of data set: Immunomodulatory effect in C57BL/6 mouse allografted mouse MC38 cells assessed as increase in tumor infiltrating lymphocytes by measuring increase in CD8+ T […] cells in tumor at 50 mg/kg, po treated 5 days after cell inoculation 19 th day by flow cytometry analysis (reference value: 2.32%). The class given is functional. As to conditions: time 15 day.

The nature of data set [16]: AUC (0 to infinity) in Sprague-Dawley rat at 20 mg/kg, iv measured upto 12 hrs by LC-MS/MS analysis. The class given is ADME, organism-based. As to conditions: in vivo.
A short description of data set [17]: Toxicity in C57BL/6 mouse allografted with mouse MC38 cells assessed as pathological changes in lung at 50 mg/kg, po treated 5 days after cell inoculation 19 th day by hematoxylin and eosin analysis. As to conditions: in vivo, 360 h, time 15 day. The class given is organism-based.
A short description of data set [18]: AUC (0 to infinity) in Sprague-Dawley rat at 20 mg/kg, po measured upto 12 hrs by LC-MS/MS analysis. The class given is ADME, organism-based. As to conditions: in vivo.

A value given as a limit tells only on which side of the number the result lay.

Histone deacetylase 1, sequence (Q13547 whole entry): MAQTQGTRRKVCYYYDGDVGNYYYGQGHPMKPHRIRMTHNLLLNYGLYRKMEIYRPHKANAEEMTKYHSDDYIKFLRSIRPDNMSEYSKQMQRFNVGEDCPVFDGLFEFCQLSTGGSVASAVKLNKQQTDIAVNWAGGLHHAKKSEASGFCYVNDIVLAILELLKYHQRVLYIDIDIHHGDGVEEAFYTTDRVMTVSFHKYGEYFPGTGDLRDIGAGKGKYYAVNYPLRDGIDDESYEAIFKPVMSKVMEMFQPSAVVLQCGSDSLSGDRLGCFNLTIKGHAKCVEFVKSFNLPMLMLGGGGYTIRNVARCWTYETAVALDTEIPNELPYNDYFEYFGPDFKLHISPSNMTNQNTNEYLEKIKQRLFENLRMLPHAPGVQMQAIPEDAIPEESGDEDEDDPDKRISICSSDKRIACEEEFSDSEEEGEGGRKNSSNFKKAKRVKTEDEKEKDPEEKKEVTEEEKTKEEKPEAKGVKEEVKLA
Histone deacetylase 3, sequence (O15379 whole entry): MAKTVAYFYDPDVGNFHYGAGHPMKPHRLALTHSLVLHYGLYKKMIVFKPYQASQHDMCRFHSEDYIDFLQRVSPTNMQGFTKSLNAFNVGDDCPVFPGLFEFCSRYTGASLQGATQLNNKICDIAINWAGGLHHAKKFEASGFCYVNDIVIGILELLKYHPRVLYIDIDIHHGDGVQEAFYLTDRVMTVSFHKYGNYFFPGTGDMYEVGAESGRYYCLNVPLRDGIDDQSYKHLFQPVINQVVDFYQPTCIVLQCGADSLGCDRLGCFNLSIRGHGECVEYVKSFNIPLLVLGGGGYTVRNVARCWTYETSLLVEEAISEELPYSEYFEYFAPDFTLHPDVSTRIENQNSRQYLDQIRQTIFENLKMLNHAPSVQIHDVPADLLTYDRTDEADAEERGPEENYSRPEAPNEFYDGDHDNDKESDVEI

Usually IC50 stands for the point on the concentration scale where inhibition reaches its midpoint. Take `CCCNNC(=O)c1ccc(CNC(=O)c2cnc(-c3cccc4ccccc34)[nH]2)cc1`: the IC50 on Histone deacetylase 1 is 2030 nM; at Histone deacetylase 3, 61 nM; with HepG2, 370 nM; with HeLa it was 1310 nM; with MC-38 [8] it was 2300 nM; in [9], 9680 nM. Besides, the Activity with MC-38 [1] is 46.63%; with MC-38 [2], 26.83%; in the data set with MC-38 [3], 22.9%; in the data set on MC-38 [4], 18.6%; with MC-38 [5], “Dose-dependent-effect”; in the data set with B16-F10, 55.07%. Also, the Activity with MC-38 [6] amounted to 43.9%; in the data set on MC-38 [7] it was 30.57%. Further, in the data set on MC-38 [10], the viability at 8 µM came out at 22.2%.
In general, Tmax refers to the time at which the peak concentration occurs. By MRT last is commonly meant the average time that molecules of a dose stay in the body. What is called half-life is the time needed for the level to fall by half in the phase considered. What is called AUC is concentration integrated over time. As to `CCCNNC(=O)c1ccc(CNC(=O)c2cnc(-c3ccc4occc4c3)[nH]2)cc1`, the Tmax in data set [11] is 4.8 min. Moreover, the IC50 at Histone deacetylase 1 was 3980 nM; on Histone deacetylase 3, 53 nM; with HepG2, 330 nM; in the data set on HeLa, 2240 nM; with MC-38 [8] it was 1800 nM; in data set [9] it was over 10000 nM. Besides, the Activity is 60.9% in the data set on MC-38 [1]; 54.95% with MC-38 [2]; 19.83% in the data set with MC-38 [3]; 31.2% in the data set with MC-38 [4]; “Dose-dependent-effect” in the data set on MC-38 [5]; 93.57% in the data set on MC-38 [15]. The Activity in the data set on B16-F10 was 54.57%; in the data set on MC-38 [6] it was 24.75%; in the data set on MC-38 [7] it was 35%; with Mus musculus, 5.29%; in data set [17], “Non-toxic”. The MRT last at 12 h in [12] amounted to 1.19 h. This compound had a Vdss in [13] of 72.81 L/kg. Besides, in [14], the half-life is 1 h. The AUC in data set [16] worked out at 1249.2 ng·h/mL; in [18], 1429.8 ng·h/mL. Moreover, the viability at 8 µM in the data set on MC-38 [10] is 16.4%.
